# Laboratory results from article PMC5505244, “Crystal structure of a family 6 cellobiohydrolase from the basidiomycete Phanerochaete chrysosporium” (Acta Crystallographica. Section F, Structural Biology …, 2017).
# Experiments:
# PcCel6A [1] = molecular target: T1, PcCel6A (Phanerodontia chrysosporium, UniProt Q02321); experiment: hydrolysis in crystal soak, inferred from bound product in X-ray structure; format: biochemical; settings: pH 5.0, 10 h soak; intact compound not seen in the structure
# T1 construct: gene cbhII; catalytic domain only; N-terminal CBM and linker (residues 1-81) deleted; pPICZalpha vector, secreted from Pichia pastoris; about 37 kDa; nonglycosylated in crystal; model residues 82-439; one molecule in asymmetric unit
# T1 sequence (Q02321 entry or part of it): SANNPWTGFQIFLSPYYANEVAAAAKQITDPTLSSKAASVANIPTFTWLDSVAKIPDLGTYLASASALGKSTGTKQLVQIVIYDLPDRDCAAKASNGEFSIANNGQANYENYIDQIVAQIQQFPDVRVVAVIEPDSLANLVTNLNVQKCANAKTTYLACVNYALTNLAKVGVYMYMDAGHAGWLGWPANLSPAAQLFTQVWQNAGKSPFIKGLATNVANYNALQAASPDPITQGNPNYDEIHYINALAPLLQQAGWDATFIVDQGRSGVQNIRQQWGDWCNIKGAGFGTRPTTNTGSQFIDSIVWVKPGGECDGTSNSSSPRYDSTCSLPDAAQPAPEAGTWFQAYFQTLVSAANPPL
# PcCel6A [2] = molecular target: T1, PcCel6A; experiment: X-ray crystal structure, […] Å; format: binding; settings: crystal soaked with pNPG3 for 10 h, pH 5.0; active site, subsites +1 and +2; loops closed; putative Tris at subsite -1
Structure (SMILES),"hydrolysis in crystal soak, inferred from bound product in X-ray structure (PcCel6A [1])","X-ray crystal structure, 2.1 Å (PcCel6A [2])"
O=[N+]([O-])c1ccc(O[C@@H]2O[C@H](CO)[C@@H](O[C@@H]3O[C@H](CO)[C@@H](O[C@@H]4O[C@H](CO)[C@@H](O)[C@H](O)[C@H]4O)[C@H](O)[C@H]3O)[C@H](O)[C@H]2O)cc1 [p-nitrophenyl β-D-cellotrioside],The observed α-cellobiose is considered to be a product of the hydrolysis of pNPG3,–
OC[C@H]1O[C@@H](O[C@H]2[C@H](O)[C@@H](O)[C@@H](O)O[C@@H]2CO)[C@H](O)[C@@H](O)[C@@H]1O [α-cellobiose],–,The ligand-bound structure obtained from the pNPG3-soaked crystal contained one α-cellobiose molecule
